Assay: xn = mol fraction of the nth substance listed

c1ccc2ncccc2c1 + Oc1ccccc1
Conditions	viscosity [mPa·s]
293.25 K, 101 kPa, x2 = 0.101	4.595
293.25 K, 101 kPa, x2 = 0.1895	5.725
293.25 K, 101 kPa, x2 = 0.2876	7.85
293.25 K, 101 kPa, x2 = 0.3677	10.58
293.25 K, 101 kPa, x2 = 0.4518	15.03
293.25 K, 101 kPa, x2 = 0.5297	20.31
293.25 K, 101 kPa, x2 = 0.6094	24.52
293.25 K, 101 kPa, x2 = 0.6758	25.29
293.25 K, 101 kPa, x2 = 0.7465	23.27
293.25 K, 101 kPa, x2 = 0.8203	19.41
293.25 K, 101 kPa, x2 = 0.8731	16.6
293.25 K, 101 kPa, x2 = 0.9409	13.37
298 K, 101.3 kPa, x1 = 0.1054	12.7
298 K, 101.3 kPa, x1 = 0.1999	17.29
298 K, 101.3 kPa, x1 = 0.3001	20.99
298 K, 101.3 kPa, x1 = 0.4004	19.77
298 K, 101.3 kPa, x1 = 0.4996	14.31
298 K, 101.3 kPa, x1 = 0.5998	10.23
298 K, 101.3 kPa, x1 = 0.6997	7.295
298 K, 101.3 kPa, x1 = 0.7997	5.58
298 K, 101.3 kPa, x1 = 0.9023	4.054
303 K, 101.3 kPa, x1 = 0.1054	10.2
303 K, 101.3 kPa, x1 = 0.1999	13.09
303 K, 101.3 kPa, x1 = 0.3001	15.72
303 K, 101.3 kPa, x1 = 0.4004	14.98
303 K, 101.3 kPa, x1 = 0.4996	11.03
303 K, 101.3 kPa, x1 = 0.5998	8.24
303 K, 101.3 kPa, x1 = 0.6997	6.11
303 K, 101.3 kPa, x1 = 0.7997	4.797
303 K, 101.3 kPa, x1 = 0.9023	3.537
303.05 K, 101 kPa, x2 = 0.104	3.645
303.05 K, 101 kPa, x2 = 0.194	4.495
303.05 K, 101 kPa, x2 = 0.2786	5.605
303.05 K, 101 kPa, x2 = 0.3683	7.425
303.05 K, 101 kPa, x2 = 0.4478	9.65
303.05 K, 101 kPa, x2 = 0.5251	12.21
303.05 K, 101 kPa, x2 = 0.6009	14.36
303.05 K, 101 kPa, x2 = 0.672	14.8
303.05 K, 101 kPa, x2 = 0.744	13.44
303.05 K, 101 kPa, x2 = 0.8109	11.77
303.05 K, 101 kPa, x2 = 0.8741	10.1
303.05 K, 101 kPa, x2 = 0.9388	8.44
308 K, 101.3 kPa, x1 = 0.1054	8.195
308 K, 101.3 kPa, x1 = 0.1999	10.47
308 K, 101.3 kPa, x1 = 0.3001	12.4
308 K, 101.3 kPa, x1 = 0.4004	11.87
308 K, 101.3 kPa, x1 = 0.4996	8.92
308 K, 101.3 kPa, x1 = 0.5998	6.902
308 K, 101.3 kPa, x1 = 0.6997	5.266
308 K, 101.3 kPa, x1 = 0.7997	4.143
308 K, 101.3 kPa, x1 = 0.9023	3.095
313 K, 101.3 kPa, x1 = 0.1054	6.728
313 K, 101.3 kPa, x1 = 0.1999	8.655
313 K, 101.3 kPa, x1 = 0.3001	10.08
313 K, 101.3 kPa, x1 = 0.4004	9.694
313 K, 101.3 kPa, x1 = 0.4996	7.31
313 K, 101.3 kPa, x1 = 0.5998	5.796
313 K, 101.3 kPa, x1 = 0.6997	4.553
313 K, 101.3 kPa, x1 = 0.7997	3.608
313 K, 101.3 kPa, x1 = 0.9023	2.718
313.15 K, 101 kPa, x2 = 0.104	2.885
313.15 K, 101 kPa, x2 = 0.194	3.455
313.15 K, 101 kPa, x2 = 0.2786	4.195
313.15 K, 101 kPa, x2 = 0.3683	5.335
313.15 K, 101 kPa, x2 = 0.4478	6.6
313.15 K, 101 kPa, x2 = 0.5251	7.95
313.15 K, 101 kPa, x2 = 0.6009	8.87
313.15 K, 101 kPa, x2 = 0.672	9.04
313.15 K, 101 kPa, x2 = 0.744	8.39
313.15 K, 101 kPa, x2 = 0.8109	7.48
313.15 K, 101 kPa, x2 = 0.8741	6.56
313.15 K, 101 kPa, x2 = 0.9388	5.525
318 K, 101.3 kPa, x1 = 0.1054	5.655
318 K, 101.3 kPa, x1 = 0.1999	7.159
318 K, 101.3 kPa, x1 = 0.3001	8.328
318 K, 101.3 kPa, x1 = 0.4004	8.054
318 K, 101.3 kPa, x1 = 0.4996	5.886
318 K, 101.3 kPa, x1 = 0.5998	4.902
318 K, 101.3 kPa, x1 = 0.6997	3.996
318 K, 101.3 kPa, x1 = 0.7997	3.172
318 K, 101.3 kPa, x1 = 0.9023	2.416
